Results on twelve molecules are retold here after PubChem BioAssay (NCI).

Some test systems named below: OVCAR-8 ovarian; SF-539 CNS; NCI-H522 lung; K-562 leukemia; PC-3 prostate; CCRF-CEM leukemia; A549 NSCLC; ACHN renal; HT29 colon; MDA-MB-231 breast.
What all share (assay): growth of human tumour cells (NCI), 48 h

The structures appear in SMILES notation. Where “and” joins values, the source holds several entries; their conditions need not be identical. Equal entries are not always repeated.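 Values below derive from 48-hour exposures of cells grown in 96-well plates, with endpoints linearly interpolated between the two concentrations bracketing the appropriate inhibition level. At the GI50, growth is halved. TGI denotes the concentration required for complete inhibition of growth.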 Where only a bound is given, the exact number is not on record here.

On to `c1ccc(CNC2CC(NCc3ccccn3)CC(NCc3ccccn3)C2)nc1` (configuration not stated), for which the GI50 with OVCAR-8 ovarian is 2.88 µM and 7.94 µM and 3.62 µM; with SF-539 CNS, 1.98 µM and 4.74 µM and 3.22 µM; in the assay with NCI-H522 lung it was 2.16 µM; in the assay with K-562 leukemia, 3.45 µM and 12.4 µM and 3.71 µM; with PC-3 prostate, 2.24 µM and 4.59 µM and 2.02 µM; with CCRF-CEM leukemia it was 4.64 µM. The GI50 was 3.19 µM and 8.17 µM and 1.96 µM with HT29 colon; 2.13 µM and 5.66 µM and 2.08 µM with MDA-MB-231 breast. For the same molecule, the TGI is 8.59 µM and 25 µM and 9.53 µM with OVCAR-8 ovarian; 10.1 µM and 10.7 µM and 15.7 µM with SF-539 CNS; 6.36 µM and 12.2 µM and 4.68 µM in the assay with NCI-H522 lung; 34.6 µM and 25 µM and 28.3 µM in the assay with K-562 leukemia; 5.68 µM and 8.75 µM and 3.98 µM with PC-3 prostate; 6.47 µM and 6.12 µM in the assay on A549 NSCLC. For the same molecule, the TGI is 47.3 µM and 25 µM and 35.7 µM in the assay on ACHN renal; 14.5 µM and 25 µM and 3.81 µM with HT29 colon; 5.21 µM and 12.5 µM and 4.56 µM in the assay with MDA-MB-231 breast.

In the case of `CN(C)c1nc2sc3c(c2c(=O)o1)CCCC3`, the TGI with OVCAR-8 ovarian, in the assay on SF-539 CNS, in the assay with NCI-H522 lung, with K-562 leukemia, with PC-3 prostate and in the assay with CCRF-CEM leukemia was > 100 µM each time. Further, the TGI in the assay with A549 NSCLC, in the assay on ACHN renal, in the assay on HT29 colon and with MDA-MB-231 breast was > 100 µM in each case.

As for `Cc1ccc(C)n1-c1ccccc1C1SCCCS1`, the TGI in the assay with OVCAR-8 ovarian, in the assay on SF-539 CNS, in the assay on NCI-H522 lung, in the assay with K-562 leukemia, in the assay on PC-3 prostate and in the assay on CCRF-CEM leukemia was > 100 µM each time. In addition, the TGI with A549 NSCLC, with ACHN renal, with HT29 colon and in the assay with MDA-MB-231 breast was > 100 µM each time.

In the case of `C/C=C/[C@@]1(OC(=O)c2ccccc2)C[C@@H]2CCCC[C@@H]21`, the TGI in the assay on OVCAR-8 ovarian was 34.7 µM; in the assay on SF-539 CNS, 33.1 µM; in the assay with NCI-H522 lung, 29.9 µM; in the assay with K-562 leukemia, 56.7 µM; in the assay with PC-3 prostate it was 37 µM; with CCRF-CEM leukemia it was 45.4 µM. Moreover, the TGI in the assay with A549 NSCLC was 36.7 µM; in the assay with ACHN renal, 31.5 µM; with HT29 colon it was 31.7 µM; in the assay with MDA-MB-231 breast, 36.3 µM.

`C=CCC1(O)c2ccccc2C(=O)c2c(O)ccc(O)c21` (configuration not stated): the TGI was 53.7 µM in the assay on OVCAR-8 ovarian; > 33.7 µM with SF-539 CNS; 8.11 µM in the assay with NCI-H522 lung; > 100 µM with K-562 leukemia; 35.5 µM with PC-3 prostate; 56.7 µM in the assay on CCRF-CEM leukemia. The TGI with A549 NSCLC was > 87.3 µM; in the assay with ACHN renal it was 46.3 µM; with HT29 colon, > 62.4 µM; in the assay with MDA-MB-231 breast it was 26 µM.

Take `Clc1ccc2c(SCC3CO3)c3ccccc3nc2c1` (configuration not stated): the TGI with OVCAR-8 ovarian was > 100 µM; with SF-539 CNS, 7.11 µM; in the assay on NCI-H522 lung, 5.64 µM; with K-562 leukemia, 4.43 µM; in the assay on PC-3 prostate it was 6.86 µM; with CCRF-CEM leukemia, 6.98 µM. For the same molecule, the TGI is 20.3 µM in the assay on A549 NSCLC, 4.55 µM with ACHN renal, 3.23 µM with HT29 colon and 6.64 µM in the assay on MDA-MB-231 breast.

As to `O=C1C2CCCCC2C(=O)N1n1c(Cc2ccc(Cl)cc2)n[nH]c1=O` (configuration not stated), the TGI in the assay on OVCAR-8 ovarian, in the assay with SF-539 CNS, in the assay on NCI-H522 lung, with K-562 leukemia, in the assay with PC-3 prostate and in the assay on CCRF-CEM leukemia was > 100 µM each time. In addition, the TGI with A549 NSCLC, in the assay with ACHN renal, in the assay with HT29 colon and with MDA-MB-231 breast was > 100 µM each time.

Consider `O=C1c2c(F)c(F)c(F)c(F)c2SC2=NCCN12`, for which the TGI with OVCAR-8 ovarian is 24.5 µM; in the assay with SF-539 CNS, 30 µM; in the assay with NCI-H522 lung, 10.1 µM; with K-562 leukemia, > 22.5 µM; in the assay on PC-3 prostate, 27.2 µM; in the assay with CCRF-CEM leukemia it was > 21.6 µM. Further, the TGI in the assay with A549 NSCLC was found to be 30.1 µM; in the assay on ACHN renal, 21.1 µM; with HT29 colon it was 8.12 µM; in the assay on MDA-MB-231 breast, 22.2 µM.

On to `O=C1Oc2ccccc2C(=O)/C1=C/N1C(=O)N/C(=C\c2ccccc2O)C1=O`, for which the TGI with OVCAR-8 ovarian, with SF-539 CNS, with NCI-H522 lung, with K-562 leukemia, in the assay on PC-3 prostate and with CCRF-CEM leukemia was > 100 µM in each case. The TGI in the assay with A549 NSCLC, in the assay with ACHN renal, in the assay with HT29 colon and in the assay on MDA-MB-231 breast was > 100 µM each time.

As to `O=C1c2ccccc2C2CNC1(O)c1ccccc12` (configuration not stated), the TGI in the assay on OVCAR-8 ovarian, in the assay on SF-539 CNS, in the assay on NCI-H522 lung, in the assay on K-562 leukemia, with PC-3 prostate and in the assay with CCRF-CEM leukemia was > 100 µM in each case. Besides, the TGI with A549 NSCLC, with ACHN renal, in the assay with HT29 colon and in the assay on MDA-MB-231 breast was > 100 µM each time.

Turning to `CC(C)(C)OC(=O)CN1CCNCCNCC1`, the TGI in the assay with OVCAR-8 ovarian, in the assay on SF-539 CNS, in the assay on NCI-H522 lung, with K-562 leukemia, in the assay with PC-3 prostate and with CCRF-CEM leukemia was > 100 µM throughout. Further, the TGI with A549 NSCLC, in the assay on ACHN renal, in the assay with HT29 colon and in the assay with MDA-MB-231 breast was > 100 µM throughout.

Regarding `O=c1[nH]c(=O)n(C2CC(O)C(CO)O2)cc1I` (configuration not stated), the TGI with OVCAR-8 ovarian, in the assay with SF-539 CNS, in the assay on NCI-H522 lung, in the assay on K-562 leukemia, with PC-3 prostate and in the assay with CCRF-CEM leukemia was > 100 µM throughout. Moreover, the TGI with A549 NSCLC, in the assay with ACHN renal, with HT29 colon and in the assay with MDA-MB-231 breast was > 100 µM in each case.
